Usually EC50 stands for the concentration needed to bring the measured effect to its halfway point.

This assay in a line: Agonist activity at ERalpha in human MCF7 cells assessed as induction of cell proliferation incubated for 5 days by WST-8 assay.

For `CC(=O)N1C(C)(C)CC(=C(c2ccc(O)cc2)c2ccc(O)cc2)CC1(C)C`, the EC50 was found to be 0.22 nM.

For the origin of these results see BindingDB's records for doi:10.1016/j.bmc.2016.01.035 (Tohoku Pharmaceutical University, 2016).
